Experimental data reported in ChEMBL document CHEMBL1201862, “PubChem BioAssay data set” (2004).
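Tested at 5 concentrations; 48 h exposure; 96-well plates; endpoints linearly interpolated, else capped at highest concentration. GI50 = concentration required for 50% inhibition of growth.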 Activity calls are given as the source filed them. No stated cut-off is given here; in the data, active = GI50 up to about 1.1 µM and inactive = higher.

How the values were obtained:
Test in all cases: NCI-60 cell line screen, 48 h
TK-10 = test system: TK-10
A498 = test system: A498
HCT-116 = test system: HCT-116
OVCAR-3 = test system: OVCAR-3
MDA-MB-435 = test system: MDA-MB-435
NCI-H460 = test system: NCI-H460
DU-145 = test system: DU-145
NCI-H226 = test system: NCI-H226
SF-539 = test system: SF-539
SF-268 = test system: SF-268
MCF7 = test system: MCF7
Malme-3M = test system: Malme-3M
Hs-578T = test system: Hs-578T
HOP-92 = test system: HOP-92
RPMI-8226 = test system: RPMI-8226
HOP-18 = test system: HOP-18
SF-295 = test system: SF-295
SNB-19 = test system: SNB-19
SK-MEL-28 = test system: SK-MEL-28
NCI-H522 = test system: NCI-H522
LOX IMVI = test system: LOX IMVI
IGROV-1 = test system: IGROV-1
U-251 = test system: U-251
SN12C = test system: SN12C
CAKI-1 = test system: CAKI-1
M14 = test system: M14
HL-60 = test system: HL-60
BT-549 = test system: BT-549
SR = test system: SR
SNB-78 = test system: SNB-78
OVCAR-8 = test system: OVCAR-8
DLD-1 = test system: DLD-1
SK-MEL-2 = test system: SK-MEL-2
K562 = test system: K562
ACHN = test system: ACHN
DMS-114 = test system: DMS-114
HCT-15 = test system: HCT-15
XF498 = test system: XF498
T47D = test system: T47D
A549 = test system: A549
SW-620 = test system: SW-620
DMS-273 = test system: DMS-273
UACC-257 = test system: UACC-257
PC-3 = test system: PC-3
KM-20L2 = test system: KM-20L2
EKVX = test system: EKVX
KM12 = test system: KM12
HOP-62 = test system: HOP-62
UO-31 = test system: UO-31
HCC 2998 = test system: HCC 2998
OVCAR-5 = test system: OVCAR-5
OVCAR-4 = test system: OVCAR-4
COLO 205 = test system: COLO 205
MDA-N = test system: MDA-N
NCI-H23 = test system: NCI-H23
SNB-75 = test system: SNB-75
MOLT-4 = test system: MOLT-4
UACC-62 = test system: UACC-62
HT-29 = test system: HT-29
786-0 = test system: 786-0
MDA-MB-231 = test system: MDA-MB-231
SK-MEL-5 = test system: SK-MEL-5
M19-MEL = test system: M19-MEL
CCRF-CEM = test system: CCRF-CEM
SK-OV-3 = test system: SK-OV-3
NCI/ADR-RES = test system: NCI/ADR-RES
RXF 393 = test system: RXF 393
LXFL 529 = test system: LXFL 529

SMILES: O=C(NCCCCCCNC(=O)n1cc(F)c(=O)[nH]c1=O)NCCCOCCOCCOCCOCCOCCOCCOCCOCCOCCOCCOCCOCCOCCOCCOCCOCCOCCOCCOCCOCCOCCCNC(=O)C(O)C(O)C(OC1OC(CO)C(O)C(O)C1O)C(O)CO (stereo not given)
- GI50 (TK-10): > 100 µM (inactive)
- GI50 (A498): 18.6 µM (inactive)
- GI50 (HCT-116): 9.16 µM (inactive)
- GI50 (OVCAR-3): 37.1 µM (inactive)
- GI50 (MDA-MB-435): 19.3 µM (inactive)
- GI50 (NCI-H460): 3.58 µM (inactive)
- GI50 (DU-145): 27.7 µM (inactive)
- GI50 (NCI-H226): > 77.3 µM (inactive)
- GI50 (SF-539): 1.67 µM (inactive)
- GI50 (SF-268): 75.5 µM (inactive)
- GI50 (MCF7): 6.07 µM (inactive)
- GI50 (Malme-3M): 35.8 µM (inactive)
- GI50 (Hs-578T): 69.2 µM (inactive)
- GI50 (HOP-92): > 100 µM (inactive)
- GI50 (RPMI-8226): 17 µM (inactive)
- GI50 (HOP-18): > 37 µM (inactive)
- GI50 (SF-295): 64.9 µM (inactive)
- GI50 (SNB-19): 88.3 µM (inactive)
- GI50 (SK-MEL-28): 29.1 µM (inactive)
- GI50 (NCI-H522): 87.9 µM (inactive)
- GI50 (LOX IMVI): 18.9 µM (inactive)
- GI50 (IGROV-1): 33.7 µM (inactive)
- GI50 (U-251): > 89.7 µM (inactive)
- GI50 (SN12C): 56.5 µM (inactive)
- GI50 (CAKI-1): 70 µM (inactive)
- GI50 (M14): 67.5 µM (inactive)
- GI50 (HL-60): 43.7 µM (inactive)
- GI50 (BT-549): > 100 µM (inactive)
- GI50 (SR): 16 µM (inactive)
- GI50 (SNB-78): > 100 µM (inactive)
- GI50 (OVCAR-8): 43.4 µM (inactive)
- GI50 (DLD-1): 22.6 µM (inactive)
- GI50 (SK-MEL-2): > 100 µM (inactive)
- GI50 (K562): 52.4 µM (inactive)
- GI50 (ACHN): 10.3 µM (inactive)
- GI50 (DMS-114): > 100 µM (inactive)
- GI50 (HCT-15): 17.5 µM
- GI50 (XF498): > 100 µM (inactive)
- GI50 (T47D): 85.7 µM (inactive)
- GI50 (A549): 7.33 µM (inactive)
- GI50 (SW-620): 64.7 µM (inactive)
- GI50 (DMS-273): 19.8 µM (inactive)
- GI50 (UACC-257): 59.4 µM (inactive)
- GI50 (PC-3): 55.2 µM (inactive)
- GI50 (KM-20L2): 24.1 µM (inactive)
- GI50 (EKVX): > 88.9 µM (inactive)
- GI50 (KM12): 19.6 µM (inactive)
- GI50 (HOP-62): 20.6 µM (inactive)
- GI50 (UO-31): 13.4 µM (inactive)
- GI50 (HCC 2998): 1.71 µM (inactive)
- GI50 (OVCAR-5): > 54 µM (inactive)
- GI50 (OVCAR-4): 29.6 µM (inactive)
- GI50 (COLO 205): 15.3 µM (inactive)
- GI50 (MDA-N): 10 µM (inactive)
- GI50 (NCI-H23): 22.5 µM (inactive)
- GI50 (SNB-75): 16.4 µM (inactive)
- GI50 (MOLT-4): 37 µM (inactive)
- GI50 (UACC-62): 27.9 µM (inactive)
- GI50 (HT-29): 11 µM (inactive)
- GI50 (786-0): 17.8 µM (inactive)
- GI50 (MDA-MB-231): > 71.4 µM (inactive)
- GI50 (SK-MEL-5): 20.5 µM (inactive)
- GI50 (M19-MEL): 64.3 µM (inactive)
- GI50 (CCRF-CEM): > 83.8 µM (inactive)
- GI50 (SK-OV-3): > 86.9 µM (inactive)
- GI50 (NCI/ADR-RES): 47.2 µM (inactive)
- GI50 (RXF 393): 80.9 µM (inactive)

SMILES: O=C1C(Cl)C(c2cccc(O)c2)N1n1cnc2ccccc2c1=O (stereo not given)
- GI50 (TK-10): > 100 µM (inactive)
- GI50 (HCT-116): 89.9 µM (inactive)
- GI50 (OVCAR-3): > 100 µM (inactive)
- GI50 (NCI-H460): > 100 µM (inactive)
- GI50 (NCI-H226): 21.6 µM (inactive)
- GI50 (SF-268): > 100 µM (inactive)
- GI50 (Malme-3M): > 100 µM (inactive)
- GI50 (RPMI-8226): 40.7 µM (inactive)
- GI50 (HOP-18): 39.9 µM (inactive)
- GI50 (SF-295): > 100 µM (inactive)
- GI50 (SNB-19): 49.5 µM (inactive)
- GI50 (SK-MEL-28): > 100 µM (inactive)
- GI50 (NCI-H522): > 100 µM (inactive)
- GI50 (LOX IMVI): > 100 µM (inactive)
- GI50 (IGROV-1): 60.5 µM (inactive)
- GI50 (U-251): > 100 µM (inactive)
- GI50 (SN12C): > 100 µM (inactive)
- GI50 (CAKI-1): 76 µM (inactive)
- GI50 (M14): > 100 µM (inactive)
- GI50 (HL-60): 64.7 µM (inactive)
- GI50 (SR): 26 µM (inactive)
- GI50 (SNB-78): > 100 µM (inactive)
- GI50 (OVCAR-8): > 100 µM (inactive)
- GI50 (DLD-1): > 100 µM (inactive)
- GI50 (SK-MEL-2): > 100 µM (inactive)
- GI50 (K562): 49.1 µM (inactive)
- GI50 (ACHN): > 100 µM (inactive)
- GI50 (DMS-114): > 100 µM (inactive)
- GI50 (LXFL 529): > 100 µM (inactive)
- GI50 (HCT-15): > 100 µM
- GI50 (XF498): > 100 µM (inactive)
- GI50 (A549): > 100 µM (inactive)
- GI50 (SW-620): > 100 µM (inactive)
- GI50 (DMS-273): > 100 µM (inactive)
- GI50 (UACC-257): > 100 µM (inactive)
- GI50 (KM-20L2): > 100 µM (inactive)
- GI50 (EKVX): 64.3 µM (inactive)
- GI50 (HOP-62): > 100 µM (inactive)
- GI50 (UO-31): 15 µM (inactive)
- GI50 (HCC 2998): > 100 µM (inactive)
- GI50 (OVCAR-5): > 100 µM (inactive)
- GI50 (OVCAR-4): > 100 µM (inactive)
- GI50 (COLO 205): > 100 µM (inactive)
- GI50 (NCI-H23): > 100 µM (inactive)
- GI50 (SNB-75): 27.9 µM (inactive)
- GI50 (MOLT-4): 57.5 µM (inactive)
- GI50 (UACC-62): > 100 µM (inactive)
- GI50 (HT-29): > 100 µM (inactive)
- GI50 (786-0): > 100 µM (inactive)
- GI50 (SK-MEL-5): > 100 µM (inactive)
- GI50 (M19-MEL): > 100 µM (inactive)
- GI50 (SK-OV-3): > 100 µM (inactive)
- GI50 (RXF 393): > 100 µM (inactive)
